PubChem BioAssay AID2060327 (Molecular Pharmacology Branch, DTP, NCI, 2025)

Tested on: PC-3 multi-cell spheroids, viability
Assay: Anticancer human tumor PC-3 cell line growth inhibition [IpAb];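 also: spheroids exposed to compounds for 7 days before readout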;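 as to viability, T/C: 100% = DMSO vehicle control wells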
Conditions: for IC50: curve of first compound; for viability, T/C: stronger effect = lower value
How it was run: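 Combinations with ipatasertib or abemaciclib were tested on tumour spheroids holding HUVEC (25%) and MSC (15%) alongside 60% malignant cells. Top concentration was at or near clinical Cmax (10 microM if undefined), descending in half-log steps.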

## Cn1ncc(Cl)c1-c1cc(C(=O)NC(CN)Cc2cccc(F)c2)sc1Cl (stereo not given) + CC(C)NCC(C(=O)N1CCN(c2ncnc3c2C(C)CC3O)CC1)c1ccc(Cl)cc1
Second compound 0.1 µM
  IC50: 81.1 nM
Second compound 0.316 µM
  IC50: < 31.6 nM
Second compound 1 µM
  IC50: < 31.6 nM
Second compound 3.16 µM
  IC50: < 31.6 nM
Second compound 10 µM
  IC50: < 31.6 nM
Second compound 0.1 µM, first compound 0.0316 µM
  viability, T/C: 59.9%
Second compound 0.1 µM, first compound 0.1 µM
  viability, T/C: 48.8%
Second compound 0.1 µM, first compound 0.316 µM
  viability, T/C: 34.3%
Second compound 0.1 µM, first compound 1 µM
  viability, T/C: 19.8%
Second compound 0.1 µM, first compound 3.16 µM
  viability, T/C: 16.9%
Second compound 0.1 µM, first compound 10 µM
  viability, T/C: 0.15%
Second compound 0.316 µM, first compound 0.0316 µM
  viability, T/C: 35.7%
Second compound 0.316 µM, first compound 0.1 µM
  viability, T/C: 40.3%
Second compound 0.316 µM, first compound 0.316 µM
  viability, T/C: 29.2%
Second compound 0.316 µM, first compound 1 µM
  viability, T/C: 17.7%
Second compound 0.316 µM, first compound 3.16 µM
  viability, T/C: 14.1%
Second compound 0.316 µM, first compound 10 µM
  viability, T/C: 0.17%
Second compound 1 µM, first compound 0.0316 µM
  viability, T/C: 24.3%
Second compound 1 µM, first compound 0.1 µM
  viability, T/C: 24.5%
Second compound 1 µM, first compound 0.316 µM
  viability, T/C: 19.9%
Second compound 1 µM, first compound 1 µM
  viability, T/C: 16.4%
Second compound 1 µM, first compound 3.16 µM
  viability, T/C: 15.8%
Second compound 1 µM, first compound 10 µM
  viability, T/C: 0.14%
Second compound 3.16 µM, first compound 0.0316 µM
  viability, T/C: 15.2%
Second compound 3.16 µM, first compound 0.1 µM
  viability, T/C: 15.8%
Second compound 3.16 µM, first compound 0.316 µM
  viability, T/C: 15.5%
Second compound 3.16 µM, first compound 1 µM
  viability, T/C: 16%
Second compound 3.16 µM, first compound 3.16 µM
  viability, T/C: 15.3%
Second compound 3.16 µM, first compound 10 µM
  viability, T/C: 0.26%
Second compound 10 µM, first compound 0.0316 µM
  viability, T/C: 13.6%
Second compound 10 µM, first compound 0.1 µM
  viability, T/C: 14.1%
Second compound 10 µM, first compound 0.316 µM
  viability, T/C: 13.6%
Second compound 10 µM, first compound 1 µM
  viability, T/C: 14.6%
Second compound 10 µM, first compound 3.16 µM
  viability, T/C: 13.9%
Second compound 10 µM, first compound 10 µM
  viability, T/C: 0.16%
